Measured values as given in patent US7078554B2, “Detection of glucose in solutions also containing an alpha-hydroxy acid or a beta-diketone” (Sensors for Medicine and Science, Inc., priority 2001, dated 2006).

Tests used:
[1] = Effect of lactate in solution on the dose response effect of glucose on fluorescence; settings: 75 μM in PBS, 0–10 mM glucose with 0, 2 or 5 mM lactate, excitation 365 nm (FIG. 3)
Protocol: Spectra were recorded using a Shimadzu RF-5301 spectrafluorometer with excitation @365 nm; excitation slits at 1.5 nm; emission slits at 1.5 nm; ambient temperature. All points measured in triplicate, with ±1 SD error bars included.
(§1) The hydrogel film (100 μm thickness, 8 mm diameter disk) was mounted in a PMMA cuvette at a 45° angle. All measurements were made at 37° C. in a Shimadzu RF-5301 spectrofluorometer with excitation at 370 nm (slit=3 nm) and emission at 430 nm (slit=3 nm) at low PMT sensitivity. Glucose and L-sodium lactate concentrations were checked using the YSI Model 2300 STAT plus glucose analyzer. Error bars are standard deviation with triplicate values for each data point.
as §1, with “The data is plotted as the average of” for “Error bars are standard deviation with”

[2] = Modulation of fluorescence with glucose
[3] = Modulation of fluorescence with lactate
Solubility = assay type: physicochemical; settings: solvents in which soluble
[4] = aqueous association with glucose; cited from earlier work

With `O=C(O)CCN(Cc1ccccc1B(O)O)Cc1c2ccccc2c(CN(CCC(=O)O)Cc2ccccc2B(O)O)c2ccccc12` [9,10-bis[N-(2-boronobenzyl)-N-[2-(carboxyethyl)amino]-methyl]anthracene] the “effect of lactate on the fluorescence modulation (at 428 nm) by glucose” value [1] was “did not substantially affect”.

In the case of `CN(CCNc1ccc2c3c(cccc13)C(=O)N(CCNC(=O)c1cc(B(O)O)cc([N+](=O)[O-])c1)C2=O)Cc1ccccc1B(O)O` [Example 10, N-(3-Borono-5-nitrobenzamido)ethyl-4-(N′-aminoethylene-N″-[2-(borono)benzyl]methylamino)naphthalene-1,8-dicarboximide], the “normalized fluorescence emission (I/I0 at 525 nm), effect of glucose” value ([2]; in MeOH/PBS (50/50 vol. %), pH 7.4, 0–50 mM glucose, excitation 430 nm (FIG. 12)) is reported as “affected by the presence of glucose” and the “normalized fluorescence emission (I/I0 at 530 nm), effect of lactate” value ([3]; in MeOH/PBS (50/50 vol. %), pH 7.4, 0–7 mM L-sodium lactate, excitation 430 nm (FIG. 13)) is reported as “not by the presence of lactate”.

With `C=C(C)C(=O)NCCCN(Cc1ccccc1B(O)O)Cc1c2ccccc2c(CN(CCC(=O)O)Cc2ccccc2B(O)O)c2ccccc12` [Example 12, 9-[N-(2-boronobenzyl)-N-[3-(methacrylamido)propylamino]methyl]-10-[N-(2-boronobenzyl)-N-[2-(carboxyethyl)amino]methyl]anthracene] the Solubility (Solubility) was “PBS/methanol, methanol, ethanol, chloroform, dichloromethane”.

For `C=C(C)C(=O)NCCCN(Cc1ccccc1B1OC(C)(C)C(C)(C)O1)Cc1c2ccccc2c(CN(CCC(=O)NCCCCCCNC(=O)c2c3ccccc3cc3ccccc23)Cc2ccccc2B2OC(C)(C)C(C)(C)O2)c2ccccc12` [Example 13], the Solubility (Solubility) was “PBS/methanol, methanol, ethanol, chloroform, dichloromethane”.

For `OB(O)c1ccccc1` [phenylboronic acid], the Kd [4] is given as 9.1 mM.

For “N-2-[6-N-(N-4-dimethylaminobenzyl)-6-N-[2-(borono)benzyl]aminohexyl]-[2-(borono)benzyl]amino-ethyl-4-butylamino-1,8-naphthalimide [Example 5]”, the “normalized fluorescence emission (I/Io @ 535 nm), effect of glucose” value ([2]; 0.015 mM in 70/30 MeOH/PBS, 0–20 mM glucose, excitation 450 nm (FIG. 5)) was “affected by the presence of glucose” and the “normalized fluorescence emission (I/Io @ 535 nm), effect of lactate” value ([3]; 0.015 mM in 70/30 MeOH/PBS, 0–20 mM lactate, excitation 450 nm (FIG. 5)) was “not substantially affected by the presence of lactate”.
